Measured values as given in patent US20240269128A1, “COMPOUNDS FOR TREATING OR PREVENTING ALZHEIMER'S DISEASE” (THE UNITED STATES OF AMERICA, as represented by the …, priority 2021, published 2024).

Tested on: BV-2 cells
Assay: Aβ1-42 clearance assay
Type: cell-based, mouse
Protocol: AB Clearance: For the amyloid beta (Aβ) clearance assay, 20000 BV-2 cells per well (uncoated 96 well plates) were plated out. After changing cells to treatment medium, drug compounds were administered 1 hour before Aβ stimulation (Bachem 4061966; final concentration in well: 200 ng/ml (dilutions in medium)). Cells treated with vehicle and cells treated with Aβ alone served as controls. After 3 h of Aβ stimulation, cell supernatants were collected for the Aβ measurement and cells were carefully washed twice with PBS and thereafter lysed in 35 μL cell lysis buffer (50 mM Tris-HCl, pH 7.4, 150 mM NaCl, 5 mM EDTA, 1% SDS) supplemented with protease inhibitors. Supernatants and cell lysates were analyzed for human Aβ42 with MSD® V-PLEX Human Aβ42 Peptide (6E10) Kit (K151LBE, Mesoscale Discovery). The immune assay was carried out according to the manual and plates were read on the MESO QuickPlex SQ 120.
Aβ1-42 clearance: For Abeta (Aβ1-42) clearance assay, 20,000 BV-2 cells per well (uncoated 96 well plates) were plated out. After changing cells to treatment medium, HCQ (0.25 μM, 2.5 μM and 25 μM) was applied 1 hour before Aβ1-42 stimulation (Bachem 4061966; final concentration in well: 200 ng/ml (dilutions in medium)). Cells treated with vehicle (0.1% DMSO) and cells treated with Aβ1-42 alone served as controls. After 3 h of Aβ1-42 stimulation, cell supernatants were collected for the Aβ1-42 measurement and cells were carefully washed twice with PBS and thereafter lysed in 35 μL cell lysis buffer (50 mM Tris-HCl, pH 7.4, 150 mM NaCl, 5 mM EDTA, 1% SDS) supplemented with protease inhibitors. Supernatants and cell lysates were analyzed for human Aβ1-42 with MSD® V-PLEX Human Aβ42 Peptide (6E10) Kit (K151LBE, Mesoscale Discovery). The immune assay was carried out according to the manufacturer's manual and plates were read on the MESO QuickPlex SQ 120.
Aβ Clearance: 20,000 BV2 cells per well (uncoated 96-well plates were plated out. After changing cells to treatment medium, drug compounds were administered 1 hour before Aβ stimulation (final concentration in well 200 ng/ml; dilutions in medium). Cells treated with vehicle and cells treated with Aβ alone served as controls. After 3 hours of Aβ stimulation, cell supernatants were collected for the Aβ measurement and cells were carefully washed twice with PBS and thereafter lysed in 35 μl of cell lysis buffer (50 mM tris-HCl, pH 7.4, 150 mM NaCl, 5 mM EDTA, and 1% SDS) supplemented with protease inhibitors. Supernatants and cell lysates were analyzed for human Aβ42 with the MSD V-PLEX Human Aβ42 Peptide (6E10) Kit (K151LBE, Mesoscale Discovery). The immune assay was carried out according to the manual, and plates were read on MESO QuickPlex SQ 120 (Meso Scale Diagnostics, Rockville, MD).
For Aβ clearance assay, 20,000 BV-2 cells per well (uncoated 96 well plates) were plated out. After 24 hours, medium was changed to treatment medium (DMEM, 5% FCS, 2 mM L-glutamine) and cells were maintained in treatment medium for the remaining culture period. After changing cells to treatment medium, the test items were administered 1 hour before Aβ stimulation (Bachem 4061966; final concentration in well: 200 ng/mL (dilutions in medium)). Cells treated with vehicle, cells treated with Aβ alone, as well as wells with Aβ but no cells served as controls. All wells were handled the same way. After 3 h of Aβ stimulation, cell supernatants were collected for the Aβ measurement and cells were carefully washed twice with PBS and thereafter lysed in 35 μl cell lysis buffer (50 mM Tris-HCl, pH 7.4, 150 mM NaCl, 5 mM EDTA, 1% SDS) supplemented with protease inhibitors. Cells were incubated for 15 min at RT on a plate shaker, samples were frozen at −80° C. until further use. The experiment was performed in n=6 technical replicates for all groups. […]

| SMILES | effect in Aβ clearance (BV2 cells) (posterior probability of a protective effect, Bayesian dose-response model) | Aβ1-42 clearance (25 μM) | Aβ1-42 in the supernatant (25 μM) | Aβ1-42 supernatant:lysate ratio (25 μM) | cell viability (25 μM) |
| --- | --- | --- | --- | --- | --- |
| C[C@H](CCC(=O)NCCS(=O)(=O)O)[C@H]1CC[C@H]2[C@@H]3[C@@H](O)C[C@@H]4C[C@H](O)CC[C@]4(C)[C@H]3CC[C@]12C [TUDCA, tauroursodeoxycholic acid] | strongly protective |  |  |  |  |
| CCN(CCO)CCCC(C)Nc1ccnc2cc(Cl)ccc12 (centres unmarked) [HCQ, hydroxychloroquine] |  | increased | reduced | lowering | without adverse effects on cell viability |
